From US12622916B2, “Use of H3K9me3 modulation for enhancing cognitive function” (THE REGENTS OF THE UNIVERSITY OF CALIFORNIA, priority 2015, dated 2026)

Tests used:
[1] = test system: aged mice; test: Contextual fear conditioning in aged mice; type: in vivo; conditions: 10 mg/kg i.p., versus aged controls
Method: Fear conditioning: 14 aged (18-20 months) male mice were placed in the fear-conditioning chamber were allowed to explore for 2 minutes before receiving one electric foot shocks (2 seconds, 0.2 mA). Animals were returned to the home cage 2 minutes after the foot shock.

[2] = test system: hippocampal synaptosomes; test: Flow synaptometry of hippocampal synaptosomes of aged mice; type: in vivo; conditions: 10 mg/kg i.p.
Method: Spine counts: In another series of experiments 10 aged mice (20-22 months) were injected with ETP69 (10 mg/kg; i.p) or vehicle (i.p) and 24 hours later the animals were euthanized and the brains were separated into two hemispheres. Right hemisphere was used for Golgi staining and the left was processed for flow synaptometry. Staining was conducted according to manufacturer's information (Golgi-Cox, Bioenna).
Flow Synaptometry: Fresh synaptosome P2 fractions were obtained from whole mouse hippocampus using our long-standing protocol. Briefly, the fractions were obtained from the hippocampus by homogenizing tissue (1:10 w/v) in ice-cold sucrose 320 mM. All the steps were carried out at 4° C.; sucrose buffer, grinder, pestle and microfuge tubes were all pre-cooled on ice. Hippocampi were rapidly dissected from a single mouse and homogenized in 320 mM sucrose (1.5 ml) containing HEPES [10 mM] and protease/phosphatase inhibitors cocktail, pH 7.4. Homogenization consisted of 6-8 manual strokes in a glass-Teflon grinder, clearance (between plunger and glass): 0.15-0.25 mm. Plunger was gently rotated during strokes while the grinder was kept on ice. The homogenate was centrifuged at 1200 g for 10 min. Supernatant (S1, containing mitochondria and synaptosomes) was transferred into two clean microfuge tubes and centrifuged at 12,000 g for 20 min. Supernatants (S2) were carefully removed using a plastic tip and vacuum. Pellets (P2, corresponding to the crude synaptosome fraction) were resuspended by gently pipetting up and down in 1.5 ml of PBS Protein concentration was determined using the BCA assay using bovine serum albumin (BSA) as standard. Before immunolabeling, all samples were adjusted to the same protein concentration using PBS as diluent. Immunolabeling for flow synaptometry analysis was performed according to a method for staining of extracellular/intracellular antigens using 200 ul of synaptosomal fractions (50-100 μg protein). Antibodies: GluR1 (extracellular) (Millipore, ABN241, DIL=1:400), p-Akt-ser473 (Cell Signaling, 4060, DIL=1:400), PSD-95 (Millipore, MAB1598, DIL=1:400), anti-rabbit IgG Alexa-488 ad anti-mouse IgG Alexa 647 (Life Science, DIL=1:400). […] Relative size and granularity was determined by forward (FSC) and side scatter (SSC) properties. […] Alexa 488 and Alexa 647 fluorochromes were detected by the FL1 and FL4 detectors, respectively. […] Ten thousand size-gated particles were collected and analyzed for each sample. […]
Next, we studied the influence of ETP69 on synapses using flow synaptometry, an innovative approach to molecularly characterize isolated synaptosomes (presynaptic terminals attached to post-synaptic dendritic spines). […] After drug treatment, hippocampal synaptosome fractions were immunostained and analyzed by flow synaptometry. […]

[3] = test system: Arc; test: Arc changes after ETP69 treatment (data not shown); type: in vivo, mice
[4] = test system: 14 DIV hippocampal neurons; test: Oxygen-glucose deprivation (OGD)-induced cytotoxicity, LDH assay; type: cell-based; conditions: OGD 2 hours, LDH 48 hours after OGD
Method: OGD in 14 DIV hippocampal neurons was induced by an approach similar to that described by Newcomb-Fernandez et al (2001). Normal media was replaced with PBS and culture plates were placed in an airtight chamber. The chamber was flushed with N2 and CO2 for 3 minutes, sealed, and placed in a 37° C. incubator for 2 hours. PBS was replaced with DMEM (serum-free) and cultures were returned to a normoxic environment. Culture medium was collected 48 hours after the cultures had returned to a normal environment. The cytotoxicity was measured by LDH assay (Thermo-Fisher). To calculate % Cytotoxicity, subtract the LDH activity of the Spontaneous LDH, release Control (water-treated) from the chemical-treated sample LDH activity, divide by the total LDH activity [(Maximum LDH Release Control activity)—(Spontaneous LDH Release Control activity)], and multiply by 100:
Initially we tested the effect of ETP69 on oxygen-glucose deprivation (OGD)-induced cytotoxicity. Mature hippocampal neurons (14 DIV) were treated with OGD for 2 hours in the presence or absence of ETP69. Cytotoxicity was measured by LDH assay 48 hours after OGD. […] FIG. 13 is a graphical illustration of the effect of ETP69 on neuronal survival after oxygen-glucose deprivation (OGD). 14 DIV hippocampal neurons were treated with OGD for 2 hours in the presence or absence of ETP. Cytotoxicity was measured by LDH assay 48 hours after OGD. […]

[5] = test system: H3K9me3; test: H3K9me3 level in cultured hippocampal neurons by Western blotting; type: cell-based
Method: Next, we examined the effect of ETP69 on H3K9me3 levels in cultured hippocampal neurons. […] FIGS. 14A-B are illustrations of the effect of ETP69 on H3K9me3 levels in 14 DIV hippocampal neurons (FIG. 14A—gel image; FIG. 14B—quantification, n=3, *, p<0.05). As the illustrations show, ETP69 treatment (24 hours) decreased H3K9me3 level measured by Western blotting.

[6] = test system: 14 DIV hippocampal neurons; test: PSD-95 immunoreactivity and dendritic F-actin staining in hippocampal neurons; type: cell-based; conditions: 20 nM, 24 hours
Description: Neurons were stained with antibodies against PSD-95 (red) and MAP2 (green). Scale bars: 10 μm, top panel; 2 μm, bottom panel.
Note presence of numerous puncta marking presence of many spines. Top panel: Control, bottom panel: ETP treated neurons. Scale bar: 2 μm.

[7] = test system: CREB; test: CREB phosphorylation at Ser133 by Western blotting; type: cell-based
Description: FIG. 16 is an image illustrating ETP69 increased CREB phosphorylation at Ser133 measured by Western blotting. CREB is a transcription factor whose activation is involved in synaptic plasticity and memory formation.

For `CN1C(=O)[C@@]23C[C@](C)(C#N)[C@H](c4ccc5c(c4)OCO5)N2C(=O)[C@]1(C)SS3` (racemic) [ETP69, Rac-(3S,6S,7S,8aS)-6-(benzo[d][1,3]dioxol-5-yl)-2,3,7-trimethyl-1,4-dioxohexahydro-6H-3,8a-epidithiopyrrolo[1,2-a]pyrazine-7-carbonitrile], the “contextual fear conditioning performance (freezing)” value [1] was “improved performance”, the “PSD95 levels per particle (Mean Fluorescence of intensity)” value ([2]; 24 hours) was “No detectable changes” and the “proportion of size-gated synaptosomes expressing PSD95” value ([2]; 24 hours) was “increases the proportion of synaptosomes expressing PSD95”. For the same compound, the “PSD95-positive events co-expressing surface GluR1” value ([2]; versus vehicle-treated controls) was “increase”, the “proportion of events expressing both p-Akt and PSD-95” value ([2]; versus vehicle-treated mice) was “increased the proportion of events expressing both p-Akt and PSD-95” and the “changes in Arc” value [3] was “did not observe changes in Arc”. For the same compound, the “OGD-induced cytotoxicity (LDH)” value ([4]; 4 nM) was “rescued neurons from OGD-induced cytotoxicity”, the “OGD-induced cytotoxicity (LDH)” value ([4]; 100 nM) was “not 100 nM rescued neurons from OGD-induced cytotoxicity” and the “neuronal H3K9me3 level at 20 nM” value ([5]; 20 nM, 24 hours) was “greatest decrease”. The “neuronal H3K9me3 level” value ([5]; 24 hours treatment, 14 DIV hippocampal neurons) was “dose-dependent decrease”, the PSD-95 immunoreactivity [6] was “increased PSD-95 immunoreactivity” and the “dendritic F-actin staining” value [6] was “increased dendritic F-actin staining”. For the same compound, the “phosphorylation of CREB at Ser133” value [7] was “increased phosphorylation”.
